Data set [1] is described as follows: Radioprotective activity in rat thymocytes assessed as radio-modification factor pretreated at 1 uM followed by 2 Gy X-ray irradiation measured after 4 hrs by flow cytometric analysis relative to control. The conditions noted are these: thymocyte. The format is ADME, cell-based. A general note: Flow cytometry measures light scatter and fluorescence of single cells or particles in a stream.

Data set [2] in a line: Radioprotective activity in rat thymocytes assessed as radio-modification factor pretreated at 10 uM followed by 2 Gy X-ray irradiation measured after 4 hrs by flow cytometric analysis relative to control. In kind it is ADME, cell-based. Particulars: thymocyte.
The nature of data set [3]: Radioprotective activity in rat thymocytes assessed as radio-modification factor pretreated at 100 uM followed by 2 Gy X-ray irradiation measured after 4 hrs by flow cytometric analysis relative to control. In kind it is ADME, cell-based. The conditions noted are these: thymocyte.
Data set [4] has as its system Thymocyte. Kind of data set: Toxicity in rat thymocytes assessed as increase in cell death at 100 uM measured after 4 hrs by flow cytometric analysis relative to control. The format is cell-based.
The test system of data set [5] is Thymocyte. Kind of data set: Toxicity in rat thymocytes assessed as increase in cell death at 1 uM measured after 4 hrs by flow cytometric analysis relative to control. In kind it is cell-based.
For data set [6], the system named is Thymocyte. Kind of data set: Toxicity in rat thymocytes assessed as increase in cell death at 1000 uM measured after 4 hrs by flow cytometric analysis relative to control. The format is cell-based.
For data set [7], the system named is Thymocyte. Put plainly: Toxicity in rat thymocytes assessed as increase in cell death at 10 uM measured after 4 hrs by flow cytometric analysis relative to control. The format is cell-based.
A short description of data set [8]: Stability of the compound. In kind it is physicochemical.
Data set [9] is described as follows: Radioprotective activity in rat thymocytes assessed as radio-modification factor pretreated at 1000 uM followed by 2 Gy X-ray irradiation measured after 4 hrs by flow cytometric analysis relative to control. Particulars: thymocyte. In kind it is ADME, cell-based.

Among the data in ChEMBL document CHEMBL3826897, “A facile and rapid access to resveratrol derivatives and their radioprotective activity” (Bioorg Med Chem Lett, 2016) are Ratio and Stability values, retold here.

Bounds are passed on as bounds.

Consider `Oc1cc(O)cc(/C=C/c2ccccc2O)c1`, for which the Ratio in data set [1] is reported as 1.2; in data set [2] it was 1.3; in data set [3], 0.4; in [4], less than 5; in data set [5], less than 5; in [6] it was more than 10. Besides, the Ratio in [7] is less than 5.

For the molecule `COc1cc(/C=C/c2ccccc2)cc(OC)c1` [3,5-O-DIMETHYLPINOSYLVIN], in data set [8], the Stability result is given as “Unstable”.

As for `Oc1ccc(/C=C/c2cc(O)cc(O)c2)cc1` [RESVERATROL], the Ratio in [1] is given as 0.93; in data set [2], 1.06; in data set [3] it was 0.59; in data set [4], less than 5; in data set [9] it was -0.34; in data set [5] it was less than 5. Also, the Ratio in data set [6] and in [7] was less than 5 each time.

On to `Oc1ccc(/C=C/c2cccc(O)c2)cc1` [(E)-3,4'-STILBENDIOL], for which the Ratio in data set [1] is recorded as 1.4; in data set [2], 1.2; in [3] it was 1.6; in data set [4] it was less than 5; in data set [9], 0.6; in data set [5], less than 5. Besides, the Ratio in data set [6] and in data set [7] was less than 5 in each case.

Take `Oc1cc(O)cc(/C=C/c2ccc(Cl)cc2)c1`: the Ratio in data set [1] is on record as 0.56; in data set [2], 0.47; in data set [4] it was more than 10; in data set [5] it was 5; in data set [6] it was more than 10; in data set [7], 5.

As for `Oc1ccc(/C=C/c2ccc(O)c(O)c2)cc1`, the Ratio in data set [1] is 2.2; in [2], 1.3; in data set [3] it was -0.3; in data set [4] it was less than 5; in data set [5], less than 5; in [6], more than 10. Moreover, the Ratio in [7] is less than 5.

For `COc1ccc(/C=C/c2ccc(OC)c(OC)c2)cc1`, the Ratio in data set [1] is 0.8; in [2] it was 1; in data set [3], 0.7; in data set [4], less than 5; in data set [9], 0.5; in data set [5], less than 5. Also, the Ratio in [6] was 5; in data set [7] it was less than 5.

For `COc1ccc(/C=C/c2cc(OC)cc(OC)c2)cc1` [TRISMETHOXYRESVERATROL], the Ratio in data set [1] is 0.82; in [2] it was 0.85; in data set [3], 0.31; in data set [4], less than 5; in data set [9], -0.15; in data set [5], less than 5. Further, the Ratio in data set [6] is recorded as 5; in data set [7] it was less than 5.

Take `Oc1ccc(/C=C/c2ccc(O)c(O)c2)cc1O`: the Stability result in data set [8] is on record as “Unstable”.

With `Oc1ccc(/C=C/c2ccc(O)cc2)cc1` [TRANS-4,4'-DIHYDROXYSTILBENE], the Ratio in data set [1] is 0.6; in [2], 1.1; in data set [3], 1.2; in data set [4] it was less than 5; in data set [9], 1.1; in [5], less than 5. The Ratio in data set [6] and in data set [7] was less than 5 in each case.

On to `Oc1ccc(/C=C/c2ccccc2O)cc1`, for which the Ratio in data set [1] was 0.4; in data set [2] it was 0.7; in data set [3], 0.5; in data set [4], 5; in data set [5], 5; in data set [6], more than 10. Also, the Ratio in [7] was less than 5.

Regarding `COc1ccc(/C=C/c2ccc(OC)cc2)cc1`, the Ratio in data set [1] is on record as 1.1; in data set [2], 1; in [3] it was 1.3; in data set [4], less than 5; in data set [9], 1.5; in [5] it was less than 5. The Ratio in data set [6] and in data set [7] was less than 5 in each case.

As to `COc1cc(/C=C/c2ccc(F)cc2)cc(OC)c1`, the Ratio in data set [1] was 1.34; in data set [2], 1.26; in data set [4], more than 10; in data set [5], less than 5; in data set [6], more than 10; in data set [7], less than 5.

Regarding `Oc1cc(O)cc(/C=C/c2ccc(F)cc2)c1`, the Ratio in [1] is 0.89; in [2], 0.81; in data set [3], -0.22; in data set [4], less than 5; in data set [5], less than 5; in data set [6], more than 10. Moreover, in [7], the Ratio was less than 5.

In the case of `Oc1cc(O)cc(/C=C/c2ccccc2)c1` [PINOSYLVIN], the Stability entry in [8] is recorded as “Unstable”.

With `COc1cccc(/C=C/c2cc(OC)cc(OC)c2)c1`, the Ratio in [1] is 1.4; in data set [2] it was 1.2; in data set [3], 1.1; in data set [4] it was less than 5; in data set [9] it was 0.2; in data set [5], less than 5. The Ratio in [6] and in [7] was less than 5 each time.

Take `COc1ccc(/C=C/c2ccc(OC)c(OC)c2)cc1OC`: the Ratio in data set [1] was 0.4; in data set [2] it was 1; in data set [3], 0.4; in [4], 5; in data set [9] it was 0.3; in data set [5], less than 5. For the same molecule, the results for the Ratio in data set [6] and in [7] were 5 and less than 5, respectively.

Consider `Oc1cccc(/C=C/c2cc(O)cc(O)c2)c1`, for which the Ratio in [1] is listed as 0.9; in data set [2] it was 0.9; in data set [3], 0.3; in data set [4], less than 5; in data set [5] it was less than 5; in data set [6], more than 10. In [7], the Ratio is reported as less than 5.

Consider `COc1cc(/C=C/c2ccc(OC(C)=O)cc2)cc(OC)c1`, for which the Ratio in [1] is on record as 0.99; in data set [2] it was 0.86; in data set [3], 0.52; in data set [4], 5; in data set [9] it was 0.07; in [5] it was less than 5. The Ratio in data set [6] and in data set [7] was 5 throughout.

For the molecule `COc1cc(/C=C/c2ccc(C)cc2)cc(OC)c1`, the Stability result in [8] is “Unstable”.

Consider `COc1cc(/C=C/c2ccc(Cl)cc2)cc(OC)c1`, for which, in data set [8], the Stability entry is “Unstable”.

`CC(=O)Nc1ccc(/C=C/c2cc(O)cc(O)c2)cc1`: in data set [8], the Stability entry is “Unstable”.

As to `Nc1ccc(/C=C/c2cc(O)cc(O)c2)cc1`, the Stability result in data set [8] is “Unstable”.

Regarding `Oc1ccc(/C=C/c2cc(O)ccc2O)cc1`, the Ratio in data set [1] is recorded as 1.7; in data set [4] it was more than 10; in data set [5], less than 5; in data set [6], more than 10; in data set [7], more than 10.

Regarding `COc1ccc(/C=C/c2ccccc2OC)cc1`, the Ratio in data set [1] is 1.3; in data set [2] it was 1.3; in data set [3], -0.2; in [4], less than 5; in data set [9], 0.2; in data set [5], less than 5. For the same molecule, the Ratio is given as 5 in [6] and less than 5 in data set [7].

`COc1cc(/C=C/c2ccccc2OC)cc(OC)c1`: the Ratio is 0.8 in [1]; 0.6 in data set [2]; 0.3 in data set [3]; less than 5 in data set [4]; 0.1 in data set [9]; less than 5 in data set [5]. Also, the Ratio was 5 in [6] and less than 5 in [7].

In the case of `COc1ccc(/C=C/c2cc(OC)ccc2OC)cc1`, the Ratio is recorded as 0.7 in data set [1]; 1.2 in data set [2]; 0.9 in [3]; less than 5 in [4]; 0.7 in data set [9]; less than 5 in data set [5]. The Ratio in [6] and in data set [7] was less than 5 throughout.

With `Cc1ccc(/C=C/c2cc(O)cc(O)c2)cc1`, the Ratio in data set [1] is given as 0.94; in data set [2], 1.06; in data set [3], 0.11; in [4] it was more than 10; in data set [5], less than 5; in [6], less than 5. For the same molecule, the Ratio in data set [7] is on record as less than 5.

Turning to `COc1ccc(/C=C/c2cccc(OC)c2)cc1`, the Ratio was 1 in [1]; 1.1 in data set [2]; 1.1 in data set [3]; less than 5 in data set [4]; 1.5 in data set [9]; less than 5 in data set [5]. Besides, the Ratio in data set [6] and in data set [7] was less than 5 in each case.

`COc1cc(/C=C/c2ccc(NC(C)=O)cc2)cc(OC)c1`: the Ratio is 1.25 in [1]; 1.21 in [2]; 0.99 in data set [3]; less than 5 in data set [4]; 1.05 in data set [9]; less than 5 in [5]. For the same molecule, the Ratio in data set [6] and in [7] was less than 5 in each case.

For `CC(=O)Oc1ccc(/C=C/c2cc(O)cc(O)c2)cc1`, the Ratio in data set [1] is 1.14; in [2], 1.01; in data set [3], 0.91; in data set [4], less than 5; in [5], less than 5; in data set [6] it was more than 10. Also, the Ratio in data set [7] is less than 5.
